Where two headings read alike, the source gives them in different places.
Assays:
[1] = system: HBV viral load, AD38 cells; test: Activity of test compounds on viral production from AD38 cells (viral load by quantitative PCR of the core sequence in supernatant); assay type: cell-based, Hepatitis B virus; details: 10 μM compound, 6 days at 37° C., vs DMSO control wells; for activity at 10 µM: Hepatitis B virus, 144 h, read-out: AD38 Viral Load (CpAM/DMSO %) at 10 μM
Outline: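 Cells seeded at 50,000/well on collagen-coated plates and exposed for 6 days at 37 °C to compound at 1, 3 or 10 μM final (1.0% DMSO). Supernatant viral DNA measured by TaqMan qPCR of the core sequence against known standards, compared with DMSO control wells.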

[2] = system: AD38 cells; test: AD38 viability normalized to DMSO control; assay type: cell-based; details: 10 μM compound, vs DMSO control
Description: AD38 cells were then re-suspended with 10 mL of treatment medium and counted. Wells of a collagen coated 96-well NUNC microtiter plate were seeded at 50,000/well in 180 μL of treatment medium, and 20 μL of either 10% DMSO (Control) or a 10× solution of test compound in 10% DMSO in treatment media was added for a final compound concentration 1, 3, or 10 μM (1.0% final [DMSO]) and plates were incubated for 6 days at 37° C.

| Structure (SMILES) | activity at 10 µM ([1]; Table 6) | AD38 Viability Normalized Result (CPAM/DMSO %) at 10 μM ([2]; Table 6) | activity at 10 µM ([1]; Table 9) | AD38 Viability Normalized Result (CPAM/DMSO %) at 10 μM ([2]; Table 9) | AD38 Viral Load (CpAM/DMSO %) at 10 μM ([1]; Table 9) |
| --- | --- | --- | --- | --- | --- |
| COc1ccc(S(=O)(=O)N2CCN(c3nc(Nc4ccc(C)cc4)cc(-c4ccccn4)n3)CC2)cc1 [Compound 1250, 2-(4-((4-methoxyphenyl)sulfonyl)piperazin-1-yl)-6-(pyridin-2-yl)-N-(p-tolyl) pyrimidin-4-amine] | 56% | 101% |  |  |  |
| C[C@H](Oc1ccc(S(=O)(=O)N2CCN(c3nc(Nc4ccc(F)cc4)cc(C(F)(F)F)n3)CC2)cc1)C(=O)O [Compound 1410, (S)-2-(4-((4-(4-((4-fluorophenyl)amino)-6-(trifluoromethyl)pyrimidin-2-yl)piperazin-1-yl)sulfonyl)phenoxy) propanoic acid] |  |  | 14% | 58% |  |
| CCOC(=O)C(C)(C)Oc1ccc(S(=O)(=O)N2CCN(c3nc(Nc4ccc(F)cc4)cc(C(F)(F)F)n3)CC2)cc1 [Compound 1406, ethyl 2-(4-((4-(4-((4-fluorophenyl)amino)-6-(trifluoromethyl)pyrimidin-2-yl)piperazin-1-yl)sulfonyl)phenoxy)-2-methylpropanoate] |  |  | 63% | 98% |  |
| COc1ccc(S(=O)(=O)N2CCN(c3nc(Nc4ccc(C)cc4)cc(-c4nccs4)n3)CC2)cc1 [Compound 1242] | 30% | 103% |  |  |  |
| CN(C)c1cc(Nc2ccc(F)cc2)nc(N2CCN(S(=O)(=O)c3ccc(C(F)(F)F)cc3)CC2)n1 [Compound 1303] | 14% | 35% |  |  |  |
| O=S(=O)(c1ccc(OC(F)(F)F)cc1)N1CCN(c2nc(Nc3ccccn3)cc(C(F)(F)F)n2)CC1 [Compound 1415] |  |  | 120% | 101% |  |
| COc1ccc(S(=O)(=O)N2CCN(c3nc(Nc4ccc(C)cc4)cc(-n4ccnc4)n3)CC2)cc1 [Compound 1229] | 13% | 92% |  |  |  |
| O=S(=O)(c1ccc(C(F)(F)F)cc1)N1CCN(c2nc(Oc3ccc(F)cc3)cc(-n3cnnc3)n2)CC1 [Compound 1308] | 63% | 88% |  |  |  |
| COc1ccc(S(=O)(=O)N2CCN(c3nc(C)cc(Nc4ccc(C#N)cc4)n3)C(=O)C2)cc1 [Compound 1352] |  |  | 89% | 96% |  |
| COc1ccc(S(=O)(=O)N2CCN(c3nc(Nc4ccc(C)cc4)cc(-n4cnnc4)n3)CC2)cc1 [Compound 1282, 2-(4-((4-methoxyphenyl)sulfonyl)piperazin-1-yl)-N-(p-tolyl)-6-(4H-1,2,4-triazol-4-yl) pyrimidin-4-amine] | 22% | 99% |  |  |  |
| Cc1cc(Nc2ccc(F)cc2)nc(N2CCN(S(=O)(=O)c3ccc(F)cc3)CC2)n1 [Compound 1347] |  |  | 2% | 7% |  |
| O=S(=O)(c1cccc(C(F)(F)F)c1)N1CCN(c2nc(Oc3ccc(F)cc3)cc(-n3cnnc3)n2)CC1 [Compound 1309] | 26% | 67% |  |  |  |
| O=S(=O)(c1ccc(OC(F)(F)F)cc1)N1CCCN(c2nc(Nc3ccc(F)cc3)cc(C(F)(F)F)n2)CC1 [Compound 1419] |  |  | 11% | 93% |  |
| Cc1ccc(S(=O)(=O)N2CCN(c3nc(Oc4ccc(F)cc4)cc(-n4cnnc4)n3)CC2)cc1 [Compound 1310] | 50% | 81% |  |  |  |
| COc1ccc(S(=O)(=O)N2CCN(c3cc(C)cc(Nc4ccc(C)cc4)n3)CC2)cc1 [Compound 1172] | 21% | 107% |  |  |  |
| CCCCCOc1ccc(S(=O)(=O)N2CCN(c3nc(Nc4ccc(F)cc4)cc(C(F)(F)F)n3)CC2)cc1 [Compound 1401] |  |  | 42% | 97% |  |
| COC(=O)CCCOc1ccc(S(=O)(=O)N2CCN(c3nc(C)cc(Nc4ccc(F)cc4)n3)CC2)cc1 [Compound 1387, methyl 4-(4-((4-(4-((4-fluorophenyl)amino)-6-methylpyrimidin-2-yl)piperazin-1-yl)sulfonyl)phenoxy) butanoate] |  |  | 19% | 107% |  |
| COc1ccc(S(=O)(=O)N2CCN(c3nc(Nc4ccc(C)cc4)cc(N4CCNCC4)n3)CC2)cc1 [Compound 1202, 2-(4-((4-methoxyphenyl)sulfonyl)piperazin-1-yl)-6-(piperazin-1-yl)-N-(p-tolyl) pyrimidin-4-amine] | 51% | 106% |  |  |  |

| Structure (SMILES) | activity at 10 µM ([1]; Table 6) | AD38 Viability Normalized Result (CPAM/DMSO %) at 10 μM ([2]; Table 6) | activity at 10 µM ([1]; Table 9) | AD38 Viability Normalized Result (CPAM/DMSO %) at 10 μM ([2]; Table 9) | AD38 Viral Load (CpAM/DMSO %) at 10 μM ([1]; Table 9) |
| --- | --- | --- | --- | --- | --- |
| COc1ccc(S(=O)(=O)N2CCN(c3nc(C)cc(Nc4ccc(F)cc4)n3)CC2(C)C)cc1 [Compound 1370] |  |  | 12% | 114% |  |
| COc1ccc(S(=O)(=O)N2CCN(c3nc(C)cc(S(=O)(=O)c4ccc(C)cc4)n3)CC2)cc1 [Compound 1160, 2-(4-((4-methoxyphenyl)sulfonyl)piperazin-1-yl)-4-methyl-6-tosylpyrimidine] | 60% | 110% |  |  |  |
| COC(=O)Cc1cccc(S(=O)(=O)N2CCN(c3nc(C)cc(Nc4ccc(F)cc4)n3)CC2)c1 [Compound 1412, methyl 2-(3-((4-(4-((4-fluorophenyl)amino)-6-methylpyrimidin-2-yl)piperazin-1-yl)sulfonyl)phenyl) acetate] |  |  | 61% | 109% |  |
| O=S(=O)(c1ccc(C(F)(F)F)cc1)N1CCN(c2nc(Nc3ccc(F)cc3)cc(C(F)(F)F)n2)CC1 [Compound 1391] |  |  | 16% | 88% |  |
| CN(C)c1cc(Nc2ccc(F)cc2)nc(N2CCN(S(=O)(=O)c3ccc(F)cc3)CC2)n1 [Compound 1302] | 52% | 112% |  |  |  |
| Cc1cc(Nc2ccc(F)cc2)nc(N2CCN(S(=O)(=O)c3ccc(O[C@H](C)C(=O)O)cc3)CC2)n1 [Compound 1395, (R)-2-(4-((4-(4-((4-fluorophenyl)amino)-6-methylpyrimidin-2-yl)piperazin-1-yl)sulfonyl)phenoxy) propanoic acid] |  |  | 42% | 98% |  |
| CCOC(=O)COc1ccc(S(=O)(=O)N2CCN(c3nc(C)cc(Nc4ccc(F)cc4)n3)CC2)cc1 [Compound 1385, ethyl 2-(4-((4-(4-((4-fluorophenyl)amino)-6-methylpyrimidin-2-yl)piperazin-1-yl)sulfonyl)phenoxy) acetate] |  |  | 105% | 94% |  |
| COc1ccc(S(=O)(=O)N2CCN(c3nc(Nc4ccc(C)cc4)cc(-n4nccn4)n3)CC2)cc1 [Compound 1247] | 6% | 98% |  |  |  |
| CC(C)c1cc(Oc2ccc(F)cc2)nc(N2CCN(S(=O)(=O)c3ccc(F)cc3)CC2)n1 [Compound 1295] | 84% | 101% |  |  |  |
| CCCCOc1ccc(S(=O)(=O)N2CCN(c3nc(Nc4ccc(F)cc4)cc(C(F)(F)F)n3)CC2)cc1 [Compound 1342] |  |  | 17% | 107% |  |
| COC(=O)Cc1ccc(S(=O)(=O)N2CCN(c3nc(Nc4ccc(F)cc4)cc(C(F)(F)F)n3)CC2)cc1 [Compound 1408, methyl 2-(4-((4-(4-((4-fluorophenyl)amino)-6-(trifluoromethyl)pyrimidin-2-yl)piperazin-1-yl)sulfonyl)phenyl) acetate] |  |  |  | 107% | 8% |
| Cc1ccc(S(=O)(=O)N2CCN(c3nc(Nc4ccc(C#N)cc4)cc(-c4nccs4)n3)CC2)cc1 [Compound 1356] |  |  | 6% | 97% |  |
| CCCCOc1ccc(S(=O)(=O)N2CCN(c3nc(Nc4ccc(C#N)cc4)cc(-c4nccs4)n3)CC2)cc1 [Compound 1354] |  |  | 24% | 97% |  |
| O=S(=O)(c1ccccc1)N1CCN(c2nc(Nc3ccc(F)cc3)cc(C(F)(F)F)n2)CC1 [Compound 1343] |  |  | 6% | 31% |  |
| Cc1cc(Nc2ccc(F)cc2)nc(N2CCN(S(=O)(=O)c3ccc(OC(C)(C)C(=O)O)cc3)CC2)n1 [Compound 1403, 2-(4-((4-(4-((4-fluorophenyl)amino)-6-methylpyrimidin-2-yl)piperazin-1-yl)sulfonyl)phenoxy)-2-methylpropanoic acid] |  |  | 83% | 100% |  |
| COc1ccc(S(=O)(=O)N2CCN(c3nc(C)cc(Nc4ccc(C)cn4)n3)CC2)cc1 [Compound 1200] | 81% | 98% |  |  |  |
| CCOC(=O)C(C)(C)Oc1ccc(S(=O)(=O)N2CCN(c3nc(C)cc(Nc4ccc(F)cc4)n3)CC2)cc1 [Compound 1404, ethyl 2-(4-((4-(4-((4-fluorophenyl)amino)-6-methylpyrimidin-2-yl)piperazin-1-yl)sulfonyl)phenoxy)-2-methylpropanoate] |  |  | 90% | 96% |  |
| COc1cccc(S(=O)(=O)N2CCN(c3cccc(Nc4ccc(C)cc4)n3)CC2)c1 [Compound 1168] | 51% | 100% |  |  |  |

Reference: US10273228B2, “Hepatitis B viral assembly effectors” (Indiana University Research and Technology Corporation, priority 2015, dated 2019)
